Laboratory results taken from patent US6710090B2, “Inhibitory or blocking agents of molecular generating and/or inducing functions” (priority 1994, dated 2004).

Key:
Candida albicans = experiment: Antifungal effect; assay type: cell-based; details: for CFU: 2 μl per 1 ml of culture medium, 10^6 CFU/ml, Sabouraud broth
human fibrinogen = target: T1, human fibrinogen (Homo sapiens, UniProt P02671+P02675+P02679); experiment: Composition of amino acids in fibrinogen; assay type: biochemical; details: Yoshixol 4 μl
T1 sequence (P02671 20-629 limits assumed): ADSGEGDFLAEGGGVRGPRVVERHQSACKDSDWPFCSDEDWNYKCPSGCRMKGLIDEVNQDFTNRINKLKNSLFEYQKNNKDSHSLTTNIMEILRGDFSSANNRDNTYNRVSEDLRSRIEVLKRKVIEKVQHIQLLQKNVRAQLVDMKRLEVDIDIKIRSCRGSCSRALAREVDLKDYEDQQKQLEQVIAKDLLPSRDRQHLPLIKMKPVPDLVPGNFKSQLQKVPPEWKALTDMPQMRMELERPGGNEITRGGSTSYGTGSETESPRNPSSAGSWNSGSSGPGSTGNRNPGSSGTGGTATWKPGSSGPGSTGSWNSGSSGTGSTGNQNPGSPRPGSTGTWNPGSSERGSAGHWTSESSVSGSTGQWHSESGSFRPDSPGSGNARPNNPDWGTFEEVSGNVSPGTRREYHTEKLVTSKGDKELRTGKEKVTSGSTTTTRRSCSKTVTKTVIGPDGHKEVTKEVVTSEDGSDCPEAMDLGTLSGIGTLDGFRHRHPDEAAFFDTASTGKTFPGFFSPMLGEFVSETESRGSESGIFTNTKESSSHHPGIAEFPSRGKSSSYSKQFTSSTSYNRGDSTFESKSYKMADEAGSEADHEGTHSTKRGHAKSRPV
T1 sequence (P02675 31-491): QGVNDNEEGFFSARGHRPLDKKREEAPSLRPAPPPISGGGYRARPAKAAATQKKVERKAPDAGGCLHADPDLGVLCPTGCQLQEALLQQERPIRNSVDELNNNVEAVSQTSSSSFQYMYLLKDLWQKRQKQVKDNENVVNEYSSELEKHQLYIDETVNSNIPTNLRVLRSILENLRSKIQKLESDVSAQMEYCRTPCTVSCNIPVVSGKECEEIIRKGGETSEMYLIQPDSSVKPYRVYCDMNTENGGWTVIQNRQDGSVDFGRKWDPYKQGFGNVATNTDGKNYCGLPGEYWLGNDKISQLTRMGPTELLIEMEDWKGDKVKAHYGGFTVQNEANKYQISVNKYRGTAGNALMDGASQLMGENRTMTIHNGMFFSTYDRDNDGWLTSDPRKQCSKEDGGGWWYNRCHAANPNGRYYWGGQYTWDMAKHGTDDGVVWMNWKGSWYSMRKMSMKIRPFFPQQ
T1 sequence (P02679 27-433 limits assumed): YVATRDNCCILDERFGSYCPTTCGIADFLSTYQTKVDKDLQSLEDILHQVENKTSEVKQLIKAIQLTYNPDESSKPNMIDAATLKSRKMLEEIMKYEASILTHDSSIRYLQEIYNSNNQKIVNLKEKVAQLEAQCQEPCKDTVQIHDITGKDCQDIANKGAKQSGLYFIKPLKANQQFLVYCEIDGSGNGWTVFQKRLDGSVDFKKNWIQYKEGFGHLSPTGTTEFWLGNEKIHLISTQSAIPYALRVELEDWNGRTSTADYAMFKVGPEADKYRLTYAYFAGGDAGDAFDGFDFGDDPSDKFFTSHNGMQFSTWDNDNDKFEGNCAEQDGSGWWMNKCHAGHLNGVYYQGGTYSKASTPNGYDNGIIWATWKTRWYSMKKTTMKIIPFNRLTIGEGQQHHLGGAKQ
Protocol: Changes in composition of amino acids were analyzed by use of 1 ml of human blood serum, 1 ml of human fibrinogen (concentration of 160 mg/dl), 1 ml of human thrombin before and after treatment with Yoshixol (4 μl). The total amino acids in the human blood serum which was treated with Yoshixol decreased by 41%. And, ratio of each composition was altered after the treatment so that as an example the concentration of phosphoserine increased about 20 times which level was from 7.2 picomole to 164.8 picomole.

thrombus = experiment: Thrombolytic effect on thrombus, phase contrasted microscopy; assay type: cell-based, human or canine
Protocol: In order to investigate a thrombolytic effect of Yoshixol on thrombus, 1 ml of human blood or canine blood were sampled by a syringe and transferred into the Petori-schale (grainer lab. GmHB) so that thrombus formation and rouleaux formation were observed under a phase contrasted microscopy (IMT-2, Olympus Co.). Then, 1 μl of Yoshixol was added in the blood sample when all visual fields could not be discriminated as an normal individual erythrocyte by thrombus formation. Then, a thrombolytic process of the thrombus was investigated and the process was recorded to a video tape via a collar video camera (CCD-IRIS, Sony Co.). The video pictures were analyzed as a liquid phenomena by an original software of dynamic state analysis. […] And, while original form of erythrocyte was recovered, each erythrocyte was marvelously dispersed from thrombus. […] And, Yoshixol has a potential to improve circulatory hindrance which is disturbed physiological role on original blood such as fluidability by being solidability. Yoshixol can apply as thrombolytic agents as well as inhibitory agents for thrombus formation.

`C=C1CC(C)(C)C=CC1=O` [Yoshixol, 4,4-dimethyl-6-methylene-2-cyclohexen-1-one] was tested, and the CFU (Candida albicans; after 1 hour) was “zero”, the CFU (Candida albicans; after 3 hours incubated) was “zero” and the “proliferation with evaporating component of Yoshixol” value (Candida albicans; 50 μl in the whole space of the schale, indirect contact, 24 hours, 37° C.) was “did not occur”. The “concentration of the total amino acids in fibrinogen” value (human fibrinogen; 1 ml human fibrinogen 160 mg/dl) was “did not change”, the “increase of concentration of cystathione in fibrinogen” value (human fibrinogen) was “more than 5 times” and the “glutamic acid and hydroxyl serine in fibrinogen” value (human fibrinogen; existed before treatment) was “disappeared”. The “hemolysis due to swelling and rupturing each erythrocyte” value (thrombus; 1 μl of Yoshixol in 1 ml blood sample) was “did not occur” and the “thrombus after adding Yoshixol” value (thrombus; 1 μl of Yoshixol in 1 ml blood sample with thrombus) was “completely individualized to each erythrocyte”.
